Experimental data taken from patent US20220064105A1, “CRYSTALLINE EDG-2 RECEPTOR ANTAGONIST AND METHODS OF MAKING” (Sanofi, priority 2020, published 2022).
Values after ≈ are worked out from the molar mass of the structure shown. Marks after values point to notes of the source that are not given here.

Assays:
[1] = Slurry stability study at room temperature (25° C.), 4 weeks, resulting form by FTIR; type: physicochemical; details: for Final form after slurry: 25° C., 4 weeks, FTIR
Experimental: Slurry stability Maturation studies were initially conducted for the purpose of identifying the most […] stable form at room temperature (25° C.).
In this set of experiments, both the individual forms and mixtures of forms were slurried in several solvents for 4 weeks, then filtered and analyzed to determine the resulting form. The first set of experiments included pure Form 1, Form 2, Form 3, and mixtures of these forms in equal amounts. The solvents included methanol, ethyl acetate, MEK, and methyl THF in order to investigate a range of solvent polarity. Additional experiments were conducted with a mixture of Form 1 and Form 4 in MEK and methanol.
Analysis was performed by FTIR due to ease of analysis for small quantities. It is interesting to note that the acid carbonyl is shifted to a different location for each polymorph. The results for the first set of experiments are listed below, comparing the starting form with the final form.

[2] = Solubility of Compound I in solvents at room temperature (about 25° C.); type: physicochemical; details: thermodynamic from solid
Experimental: Compound I was dissolved in a variety of solvents at room temperature (about 25° C.) to provide solutions of Compound I with a maximum concentration of 10 mg/mL. The input material in these experiments was a mixture of polymorphic forms 1, 2, and 3.
The maximum concentration used in this set of experiments was 10 mg/mL. Solubility was highest in THF at >10 mg/mL. […] The solubility was estimated at less than 2 mg/mL for: 1-butanol, butyl acetate, hexane, ethanol, ethyl acetate, isobutyl alcohol, 1-pentanol, isopropanol, acetonitrile, dichloromethane, chloroform, and water.

[3] = Estimated hot solubility in solvents at elevated temperature (approximately solvent boiling point); type: physicochemical; details: thermodynamic from solid, read-out: Hot Solubility (est)
Experimental: Compound I was dissolved in a variety of solvents at elevated temperature (approximately at solvent boiling point) to provide solutions of Compound I with a maximum concentration of 15 mg/mL. The input material in these experiments was a mixture of polymorphic forms 1, 2, and 3.
When concentrations of Compound I was greater than 2 mg/mL, the solutions were filtered and evaporated at 25° C. to isolate the solid.

[4] = test system: mouse model of skin fibrosis; details: cited from earlier work
[5] = test system: patients with diffuse cutaneous systemic sclerosis SSc (dcSSc); details: cited from earlier work
[6] = Slurry conversion studies at 40-70° C. with Forms 1 and 2; type: physicochemical
Experimental: Slurry conversation studies were also conducted at 40-70° C. with Forms 1 and 2 to determine a transition temperature between the forms. A mixture of Form 1 and Form 2 at a (1:1 ratio) was slurried at 40° C., 50° C., 60° C., and 70° C. in two different solvents at each temperature and then analyzed to determine the direction of transformation. At 40° C. and 50° C., Methanol and MEK were used. At 60° C. and 70° C. MEK and 1-Pentanol were used.

[7] = Physical stability of solid state forms at 80° C./75% RH, by FTIR; type: physicochemical; details: 1 week (7 days), open glass vials
Experimental: The physical stability of Forms 1, 2, and 3 was investigated at 80° C./75% RH in order to determine if interconversion was observed. The samples were examined by FTIR after stressing 1 week in open glass vials.

[8] = Solubility of polymorphs at pH 7.4 in phosphate buffer at 25° C.; type: physicochemical; details: pH 7.4 phosphate buffer; for Concentration (equilibrium solubility): 24 hr
Experimental: The solubility of the different polymorphs was determined at pH 7.4 in phosphate buffer at 25° C. Samples were analyzed as a function of time for each form to determine the equilibrium values. The residual solids from each sample were analyzed to verify that the form was unchanged during the experiment. The concentration (mg/mL) versus time data is listed below for each form: […]

[9] = Dynamic vapor sorption (DVS); type: physicochemical; details: 25° C.
Experimental: Moisture sorption/desorption isotherms are recorded on a DVS-1 from SURFACE MEASUREMENT SYSTEMS. Two cycles are run at 25° C., in which the Relative Humidity (RH) is stepped from 0 to 95% and back to 0%. The data is evaluated with the software DVSWin V. 2.15.

[10] = slurried in 1-pentanol at 60° C.
[11] = slurried in 1-pentanol at 70° C.

COc1ccc(C(=O)NC2(C(=O)O)Cc3ccccc3C2)cc1OCCc1cccc(C)c1 [mixtures of Form 4 and Form 1]
Final form after slurry ([1]; slurried in MEK): convert to Form 1 | Final form after slurry ([1]; slurried in methanol): convert to Form 1

COc1ccc(C(=O)NC2(C(=O)O)Cc3ccccc3C2)cc1OCCc1cccc(C)c1 [Compound I, 2-(4-methoxy-3-(3-methylphenethoxy)benzamido)-2,3-dihydro-1H-indene-2-carboxylic acid]
solubility ([2]; organic solvent or mixture, 1-butanol, read-out: Solubility (estimated)): < 2000 µg/mL | solubility ([2]; organic solvent or mixture, 1-pentanol, read-out: Solubility (estimated)): < 2000 µg/mL | solubility ([2]; organic solvent or mixture, MEK, read-out: Solubility): 4000 to 6000 µg/mL (≈ 8.98 to 13.5 mM) | solubility ([2]; organic solvent or mixture, THF, read-out: Solubility): > 10000 µg/mL | solubility ([2]; organic solvent or mixture, acetone, read-out: Solubility): 4000 to 6000 µg/mL (≈ 8.98 to 13.5 mM) | solubility ([2]; organic solvent or mixture, acetonitrile, read-out: Solubility (estimated)): < 2000 µg/mL | solubility ([2]; organic solvent or mixture, butyl acetate, read-out: Solubility (estimated)): < 2000 µg/mL | solubility ([2]; organic solvent or mixture, chloroform, read-out: Solubility (estimated)): < 2000 µg/mL | solubility ([2]; organic solvent or mixture, dichloromethane, read-out: Solubility (estimated)): < 2000 µg/mL | solubility ([2]; organic solvent or mixture, ethanol, read-out: Solubility (estimated)): < 2000 µg/mL | solubility ([2]; organic solvent or mixture, ethyl acetate, read-out: Solubility (estimated)): < 2000 µg/mL | solubility ([2]; organic solvent or mixture, hexane, read-out: Solubility (estimated)): < 2000 µg/mL | solubility ([2]; organic solvent or mixture, isobutyl alcohol, read-out: Solubility (estimated)): < 2000 µg/mL | solubility ([2]; organic solvent or mixture, isopropanol, read-out: Solubility (estimated)): < 2000 µg/mL | solubility ([2]; organic solvent or mixture, methanol, read-out: Solubility): 2000 to 3000 µg/mL (≈ 4.49 to 6.73 mM) | solubility ([2]; water, read-out: Solubility (estimated)): < 2000 µg/mL | solubility ([3]; 40 °C, organic solvent or mixture, Dichloromethane (DCM)): < 4000 µg/mL | solubility ([3]; 56 °C, organic solvent or mixture, Acetone): > 10000 µg/mL | solubility ([3]; 61 °C, organic solvent or mixture, Chloroform): 4000 to 5000 µg/mL (≈ 8.98 to 11.2 mM) | solubility ([3]; 65 °C, organic solvent or mixture, Methanol): > 10000 µg/mL | solubility ([3]; 69 °C, organic solvent or mixture, Hexane): < 2000 µg/mL | solubility ([3]; 77 °C, organic solvent or mixture, Ethyl Acetate): 5000 to 10000 µg/mL (≈ 11.2 to 22.4 mM) | solubility ([3]; 78 °C, organic solvent or mixture, Ethanol): > 10000 µg/mL | solubility ([3]; 80 °C, organic solvent or mixture, Methyl Ethyl Ketone (MEK)): > 15000 µg/mL | solubility ([3]; 82 °C, organic solvent or mixture, 2-Propanol): 7000 to 10000 µg/mL (≈ 15.7 to 22.4 mM) | solubility ([3]; 82 °C, organic solvent or mixture, Acetonitrile): 7000 to 10000 µg/mL (≈ 15.7 to 22.4 mM) | solubility ([3]; 100 °C, Water): < 2000 µg/mL | solubility ([3]; 108 °C, organic solvent or mixture, Isobutyl Alcohol): > 10000 µg/mL | solubility ([3]; 118 °C, organic solvent or mixture, 1-Butanol): > 10000 µg/mL | solubility ([3]; 126 °C, organic solvent or mixture, Butyl Acetate): ~10000 µg/mL (≈ 22.4 mM) | solubility ([3]; 138 °C, organic solvent or mixture, 1-Pentanol): > 10000 µg/mL | Collagen content [4]: reduced collagen content | Dermal thickening [4]: reversed dermal thickening | Myofibroblast differentiation [4]: significantly inhibited myofibroblast differentiation | Outcome measures [5]: improved outcome measures | Target engagement [5]: demonstrated target engagement | Tolerability [5]: well tolerated

COc1ccc(C(=O)NC2(C(=O)O)Cc3ccccc3C2)cc1OCCc1cccc(C)c1 [Form 2, 2-(4-methoxy-3-(3-methylphenethoxy)benzamido)-2,3-dihydro-1H-indene-2-carboxylic acid]
Final form after slurry ([1]; slurried in MEK): converts to crystalline Form 1 | Final form after slurry ([1]; slurried in ethyl acetate): Form 2 | Final form after slurry ([1]; slurried in methanol): Form 2 | Final form after slurry ([1]; slurried in methyl THF): Form 2 | Resulting form after slurry ([6]; slurried in MEK at 40° C.): converts to crystalline Form 1 | Resulting form after slurry ([6]; slurried in MEK at 50° C.): converts to crystalline Form 1 | Resulting form after slurry ([6]; slurried in methanol at 40° C.): converts to crystalline Form 1 | Resulting form after slurry ([6]; slurried in methanol at 50° C.): converts to crystalline Form 1 | Change in FTIR spectrum after storage [7]: unchanged FTIR | 24 hour solubility greater than Form 1 ([8]; 24 hours): more than 30% | Concentration (solubility) ([8]; 1 hr): 34 µg/mL | Concentration (solubility) ([8]; 2 hr): 39 µg/mL | Concentration (solubility) ([8]; 3 hr): 43 µg/mL | Concentration (equilibrium solubility) [8]: 0.057* mg/mL

COc1ccc(C(=O)NC2(C(=O)O)Cc3ccccc3C2)cc1OCCc1cccc(C)c1 [Form 4, 2-(4-methoxy-3-(3-methylphenethoxy)benzamido)-2,3-dihydro-1H-indene-2-carboxylic acid]
Equilibrium solubility relative to Form 1 ([8]; 24 hours): more than double | Concentration (solubility) ([8]; 1 hr): 79 µg/mL | Concentration (solubility) ([8]; 2 hr): 89 µg/mL | Concentration (solubility) ([8]; 3 hr): 105 µg/mL | Concentration (equilibrium solubility) [8]: 0.102 mg/mL

COc1ccc(C(=O)NC2(C(=O)O)Cc3ccccc3C2)cc1OCCc1cccc(C)c1 [Form 3, 2-(4-methoxy-3-(3-methylphenethoxy)benzamido)-2,3-dihydro-1H-indene-2-carboxylic acid]
Final form after slurry ([1]; slurried in MEK): converts to crystalline Form 1 | Final form after slurry ([1]; slurried in ethyl acetate): converts to crystalline Form 1 | Final form after slurry ([1]; slurried in methanol): converts to crystalline Form 1 | Final form after slurry ([1]; slurried in methyl THF): converts to crystalline Form 1 | Change in FTIR spectrum after storage [7]: unchanged FTIR | Equilibrium solubility relative to Form 1 ([8]; 24 hours): more than double | Concentration (solubility) ([8]; 1 hr): 83 µg/mL | Concentration (solubility) ([8]; 2 hr): 93 µg/mL | Concentration (solubility) ([8]; 3 hr): 95 µg/mL | Concentration (equilibrium solubility) [8]: 0.097 mg/mL

COc1ccc(C(=O)NC2(C(=O)O)Cc3ccccc3C2)cc1OCCc1cccc(C)c1 [Form 1, 2-(4-methoxy-3-(3-methylphenethoxy)benzamido)-2,3-dihydro-1H-indene-2-carboxylic acid]
Relative stability of the crystal forms ([1]; room temperature (25° C.), from slurry data set): most stable form | Final form after slurry ([1]; slurried in MEK): Form 1 | Final form after slurry ([1]; slurried in ethyl acetate): Form 1 | Final form after slurry ([1]; slurried in methanol): Form 1 | Final form after slurry ([1]; slurried in methyl THF): Form 1 | Resulting form after slurry [6, 10]: converts to crystalline Form 2 | Resulting form after slurry [6, 11]: converts to crystalline Form 2 | Resulting form after slurry ([6]; slurried in MEK at 60° C.): converts to crystalline Form 2 | Resulting form after slurry ([6]; slurried in MEK at 70° C.): converts to crystalline Form 2 | Reversible water uptake [9]: less than 1% | Change in FTIR spectrum after storage [7]: unchanged FTIR | Concentration (solubility) ([8]; 1 hr): 42 µg/mL | Concentration (solubility) ([8]; 2 hr): 41 µg/mL | Concentration (solubility) ([8]; 3 hr): 42 µg/mL | Concentration (equilibrium solubility) [8]: 0.042 mg/mL

COc1ccc(C(=O)NC2(C(=O)O)Cc3ccccc3C2)cc1OCCc1cccc(C)c1 [Forms 1, 2, 3]
Final form after slurry ([1]; slurried in MEK): Form 1 | Final form after slurry ([1]; slurried in methanol): Form 1 | Final form after slurry ([1]; slurried in methyl THF): Form 1

COc1ccc(C(=O)NC2(C(=O)O)Cc3ccccc3C2)cc1OCCc1cccc(C)c1 [mixture of Form 1 and Form 2]
Resulting form after slurry [6, 10]: Form 2 | Resulting form after slurry [6, 11]: Form 2 | Resulting form after slurry ([6]; slurried in MEK at 40° C.): Form 1 | Resulting form after slurry ([6]; slurried in MEK at 50° C.): Form 1 | Resulting form after slurry ([6]; slurried in MEK at 60° C.): Form 2 | Resulting form after slurry ([6]; slurried in MEK at 70° C.): Form 2 | Resulting form after slurry ([6]; slurried in methanol at 40° C.): Form 1 | Resulting form after slurry ([6]; slurried in methanol at 50° C.): Form 1
